From US20220089646A1 (THE UNIVERSITY OF QUEENSLAND, priority 2019, published 2022)
*1 amine or outer side, *2 acyl side, *3 side chain or, on linkers, in order; H or OH if unused. Where a SMILES comes first, the peptide text is derived from it. Bridges are numbered along the chain shown (N, C = ends). [ ]: non-standard residue; d: D form. ξ: configuration not given here. Phe(4-NO2) = N[C@@H](Cc1ccc([N+](=O)[O-])cc1)C(=O)O; Phe(4-Cl) = N[C@@H](Cc1ccc(Cl)cc1)C(=O)O; NHCH2CMe2S = CC(C)(CN[*:1])S[*:2]; NMeR = CN[C@@H](CCCNC(=N)N)C(=O)O; X1 = CC(C)(CN[*:2])S[*:1]; ξC = NC(CS)C(=O)O; Sar = CNCC(=O)O

How the values were obtained:
[1] = target: KOP (Homo sapiens, UniProt P41145); test: In vitro cAMP activity at KOP (Table 10); format: cell-based; settings: cAMP inhibition, four-parameter regression, normalised to U50488H
Experimental: (§1) The CP series compounds were assayed as follows: The assay was performed using a 96 well ½ area plate. The different cAMP standard solutions (3 μL/well) were plated in duplicate. The different concentrations of drug (3 μL/well), and control solutions (3 μL/well) were plated in triplicate. Following this, the acceptor bead mixture (3 μL/well) was added to the respective sets—either cAMP standard curve or the treatment. This was covered and incubated on the orbital shaker for 60 minutes at 37° C. Then, the donor bead mixture (10 μL/well) was added to each well. This was incubated at room temperature overnight on the orbital shaker.
(§2) For DP-11-06 the assay was carried out in the same way as for the CP compounds except it was incubated for 30 mins at 37° C.
(§3) For the CP series compounds and DP-11-06, the Ensight® Multimode Plate Reader was used to quantify the fluorescence units of each plate. Before reading, each plate was centrifuged at 280 g for 30 seconds. Using GraphPad Prism7® Software, cAMP concentrations were determined by fit spline/LOWESS analysis. The cAMP standard curve was used for interpolation at this point. The cAMP concentrations were then normalized to the highest cAMP concentration recorded and analyzed by one-way ANOVA for multiple comparisons. The IC50 for each compound was then calculated using GraphPad Prism7® with non-linear regression analysis using four parameter curve fitting.
(§4) The results shown in Table 10 utilized rat plasma. • Note that DP-7-11 and CP5 represent the same compound, and DP-7-12 and CP6 are the same compound. In this regard, a different regression analysis method was adopted on the above cAMP experiments. Particularly, a new non-linear regression (four-parameter) was adopted to better account for hill slope, thereby improving the regression fit.

[2] = Plasma stability assay (Table 10); format: in vitro ADME; settings: rat plasma, 37° C., 100 uM peptide, One Phase Decay; read-out: Stability (t1/2, mins) Plasma
Excerpt: (§5) FIG. 20 is a series of graphs showing the stability of selected peptides in a trypsin (left-hand graphs) and plasma (right-hand graphs) stability assay (data normalised to concentration of each peptide at t=0, determined by LCMS, within each substrate; data analysed using One Phase Decay nonlinear regression in Prism software and each experiment performed in triplicate; mean+/−SEM);
as §4
(§6) Plasma was collected in house from adult mixed-gender Wistar rats, prepared using 2% EDTA as per standard practice. Peptides were added to rat plasma samples at 37° C. (in a water bath) with final concentrations of 100 uM (1:9 peptide in water:plasma) and a 50 μL sample was immediately taken and precipitated in 150 μL cold acetonitrile (9:1 ACN:water). This sample became the baseline, or t=0 min sample. Plasma with peptide was immediately returned to the water bath and subsequent 50 μL samples were taken at 5, 10, 15, 30, 60 and 120 min. At each time point, the 50 μL of plasma collected was immediately added to cold ACN. Each collected plasma sample in ACN was directly vortexed for 30 seconds and then centrifuged at room temperature (13K rpm, 5 min). 150 μL of the supernatant was taken and directly placed in glass HPLC vials for LCMS analysis.

[3] = target: MOP (Homo sapiens, UniProt P35372); test: In vitro cAMP activity at MOP (Table 10); format: cell-based; settings: cAMP inhibition, four-parameter regression
Experimental: as §1, §2, §3
(§7) In this regard, a different regression analysis method was adopted on the above cAMP experiments. Particularly, a new non-linear regression (four-parameter) was adopted to better account for hill slope, thereby improving the regression fit.

[4] = target: T1, bovine pancreatic trypsin (Bos taurus, UniProt P00760); test: Trypsin stability assay (Table 10); format: in vitro ADME; settings: for half-life: bovine pancreatic trypsin 2.5 μg/mL, 37° C., One Phase Decay, read-out: Stability (t1/2, mins) Trypsin
T1 construct: from tissue; host or cells: bovine pancreas
T1 sequence (P00760 24-246): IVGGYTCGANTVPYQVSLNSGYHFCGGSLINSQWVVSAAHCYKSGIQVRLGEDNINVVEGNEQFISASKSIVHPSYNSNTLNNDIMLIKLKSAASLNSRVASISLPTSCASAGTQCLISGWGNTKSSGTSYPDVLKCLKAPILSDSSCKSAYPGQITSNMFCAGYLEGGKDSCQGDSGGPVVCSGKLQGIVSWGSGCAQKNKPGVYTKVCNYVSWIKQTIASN
Excerpt: as §5
as §6, with “Plasma with peptide was immediately returned to the water bath and subsequent 50 μL samples were taken at 5, 10, 15, 30, 60 and 120 min.” left out
The protocol for the trypsin stability assay was very similar to the plasma stability assay discussed above. The only difference was the use of a trypsin solution (bovine pancreatic trypsin 2.5 μg/mL in NH4HCO3 buffer, pH approx. 8-8.5, 37° C.) instead of rat plasma. Volumes, times and preparation protocols were exactly as mentioned above.

[5] = target: DOP (Homo sapiens, UniProt P41143); test: In vitro cAMP activity at DOP (Table 10); format: cell-based; settings: cAMP inhibition, four-parameter regression
Experimental: as §1, §2, §3, §7

[6] = target: T2, trypsin (Bos taurus, UniProt P00760); test: Trypsin stability; format: in vitro ADME; settings: for Trypsin: complete degradation within: 37° C. (Table 8)
T2 sequence (P00760 24-246): T1 sequence (P00760 24-246)
Experimental: (§8) Purified DP-7-11 (1 mg/mL) was dissolved in 0.1 M ammonium bicarbonate (NH4HCO3) buffer. To prepare a stock trypsin solution, 1 mg trypsin was dissolved in 50 mL of 0.1 M NH4HCO3 buffer. Equal volumes of the stock trypsin solution (62.5 μL) and DP-7-11 solution (62.5 μL) were incubated in 375 μL of 0.1M NH4HCO3 buffer in a 37° C. water bath. Aliquots of 100 μL were collected from this mixture at set time intervals of 0 min, up to 24 hours. Ice-cold acetonitrile containing 0.5% TFA was used to quench the reaction between DP-7-11 and trypsin at predetermined intervals, and just prior to HPLC or LC-MS analysis. The quenched samples were vortexed for 10 minutes followed by centrifugation at 12,000 rpm for a further 15 minutes. Supernatant was sampled and analysed using analytical RP-HPLC or LC-MS. Samples without trypsin acted as negative controls and were sampled at two intervals of 0 hour and 6 hours.
(§9) As used in this serum and trypsin stability discussion, the term ‘degraded completely’ relates to the relevant compound being completely absent when tested. In other words, the compound being tested is not observed when tested.
(§10) The serum and trypsin stability of DP-7-11 and DP-7-12 were tested (in some instances again) using LC-MS. The LC-MS utilized in this study was more sensitive than the LC-MS utilized in the above tests.

[7] = Serum stability; format: in vitro ADME; settings: rat, serum, 37° C., LC-MS (Table 8)
Experimental: as §8
Serum stability of DP-7-11 was also performed. In this regard, rat serum replaced trypsin and NH4HCO3 buffer. Water was used as negative control in place of serum, with the stability study performed in an identical fashion to the trypsin study. […] DP-11-00 and DP-11-06 were tested in a similar manner.
as §9
This appears to indicate the improved metabolic stability of the present invention.
as §10

KOP, sequence (P41145 whole entry): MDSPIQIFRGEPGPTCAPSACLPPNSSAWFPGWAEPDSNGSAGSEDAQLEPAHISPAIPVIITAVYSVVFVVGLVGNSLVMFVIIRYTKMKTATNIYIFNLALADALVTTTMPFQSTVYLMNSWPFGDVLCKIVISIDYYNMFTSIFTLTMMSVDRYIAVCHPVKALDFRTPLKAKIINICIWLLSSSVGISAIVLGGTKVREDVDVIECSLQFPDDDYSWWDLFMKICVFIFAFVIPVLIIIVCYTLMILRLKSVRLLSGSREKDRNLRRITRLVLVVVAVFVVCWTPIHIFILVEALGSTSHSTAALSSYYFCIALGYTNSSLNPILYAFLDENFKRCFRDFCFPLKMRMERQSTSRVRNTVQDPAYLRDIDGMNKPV
DOP, sequence (P41143 whole entry): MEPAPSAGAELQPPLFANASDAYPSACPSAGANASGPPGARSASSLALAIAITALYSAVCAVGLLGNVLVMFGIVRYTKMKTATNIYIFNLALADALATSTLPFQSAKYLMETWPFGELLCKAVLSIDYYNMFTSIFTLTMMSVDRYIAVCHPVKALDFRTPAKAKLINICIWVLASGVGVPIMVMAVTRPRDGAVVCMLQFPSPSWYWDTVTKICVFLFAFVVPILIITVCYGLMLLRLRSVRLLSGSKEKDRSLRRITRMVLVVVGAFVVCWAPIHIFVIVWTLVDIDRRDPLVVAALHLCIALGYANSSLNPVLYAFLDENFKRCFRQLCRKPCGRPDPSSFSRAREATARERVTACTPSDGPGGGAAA
MOP, sequence (P35372 whole entry): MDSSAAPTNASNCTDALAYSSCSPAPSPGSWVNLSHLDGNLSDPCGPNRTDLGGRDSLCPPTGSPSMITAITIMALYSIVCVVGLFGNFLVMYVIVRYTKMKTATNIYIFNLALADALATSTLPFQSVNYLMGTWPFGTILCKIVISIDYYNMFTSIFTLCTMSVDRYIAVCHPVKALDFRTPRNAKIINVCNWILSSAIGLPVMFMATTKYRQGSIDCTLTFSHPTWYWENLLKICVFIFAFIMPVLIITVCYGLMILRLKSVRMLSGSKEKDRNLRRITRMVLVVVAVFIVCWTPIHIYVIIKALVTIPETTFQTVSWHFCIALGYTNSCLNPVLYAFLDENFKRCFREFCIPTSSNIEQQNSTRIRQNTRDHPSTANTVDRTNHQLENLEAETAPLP

Row | SMILES | EC50 [1] | half-life [2] | EC50 [3] | half-life [4] | EC50 [5] | further results
1 | CC1(C)CNC(=O)C[C@@H](C(=O)N[C@@H](CCCNC(=N)N)C(=O)N[C@@H](CCCNC(=N)N)C(N)=O)NC(=O)[C@H](Cc2ccccc2)NC(=O)CNC(=O)C(NC(=O)[C@@H](N)Cc2ccc(O)cc2)CSS1 (stereo partly drawn) [CP1, c(Tyr-SSa-Gly-Phe-L-Asp-Arg-Arg)] | 1270 nM | < 0.01 min | 4530 nM | < 0.01 min | > 10000 nM | –
2 | CC1(C)CNC(=O)C[C@@H](C(=O)N[C@@H](CCCNC(=N)N)C(=O)N[C@@H](CCCNC(=N)N)C(N)=O)NC(=O)[C@H](Cc2ccccc2)NC(=O)C(NC(=O)CNC(=O)[C@@H](N)Cc2ccc(O)cc2)CSS1 (stereo partly drawn) [CP3, c(Tyr-Gly-SSa-Phe-Asp-Arg-Arg)] (H-YG[ξC]FDRR-NH2; linker 3-5 via X1; N-terminus assumed) | > 10000 nM | – | > 10000 nM | – | > 10000 nM | –
3 | CC1(C)CNC(=O)C[C@H](NC(=O)CNC(=O)[C@@H](N)Cc2ccc(O)cc2)C(=O)N[C@@H](Cc2ccccc2)C(=O)NC(C(=O)N[C@@H](CCCNC(=N)N)C(=O)N[C@@H](CCCNC(=N)N)C(N)=O)CSS1 (stereo partly drawn) [CP4, c(Tyr-Gly-Asp-Phe-SSa-Arg-Arg)] (H-YGDF[ξC]RR-NH2; linker 3-5 via NHCH2CMe2S; N-terminus assumed) | > 10000 nM | – | > 10000 nM | – | > 10000 nM | –
4 | CC(C)C[C@H](NC(=O)[C@H](Cc1ccc(Cl)cc1)NC(=O)CN(C)C(=O)[C@@H](N)Cc1ccc(O)cc1)C(=O)N[C@@H](CCCNC(=N)N)C(=O)N[C@H](CCCNC(=N)N)C(=O)NC1CSSC(C)(C)CNC(=O)C[C@@H](C(=O)N[C@@H](CCCCN)C(N)=O)NC(=O)[C@H](CCCNC(=N)N)NC1=O (stereo partly drawn) [CP10, c(Tyr-Sar-(p-Cl-Phe)-Leu-Arg-D(Arg)-SSa-Arg-Asp-Lys)] (H-Y[Sar][Phe(4-Cl)]LR[dR][ξC]RDK-NH2; linker 7-9 via X1; N-terminus assumed) | 0.94 nM | – | 1600 nM | 2.3 min | 127 nM | –
5 | CC(C)C[C@H](NC(=O)[C@H](Cc1ccc([N+](=O)[O-])cc1)NC(=O)CN(C)C(=O)[C@@H](N)Cc1ccc(O)cc1)C(=O)N[C@@H](CCCNC(=N)N)C(=O)N(C)[C@@H](CCCNC(=N)N)C(=O)NC1CSSC(C)(C)CNC(=O)C[C@@H](C(=O)N[C@@H](CCCCN)C(N)=O)NC(=O)[C@H](CCCNC(=N)N)NC1=O (stereo partly drawn) [CP12, c(Tyr-Sar-(p-NO2-Phe)-Leu-Arg-NMA-SSa-Arg-Asp-Lys)] (H-Y[Sar][Phe(4-NO2)]LR[NMeR][ξC]RDK-NH2; linker 7-9 via X1; N-terminus assumed) | 7.5 nM | < 0.01 min | – | 0.019 min | – | –
6 | CC(C)C[C@H](NC(=O)[C@H](Cc1ccccc1)NC(=O)CNC(=O)CNC(=O)[C@@H](N)Cc1ccc(O)cc1)C(=O)N[C@@H](CCCNC(=N)N)C(=O)N[C@@H](CCCNC(=N)N)C(N)=O [DP-7-00, Tyr-Gly-Gly-Phe-Leu-Arg-Arg] | – | – | – | – | – | Susceptibility to trypsin digestion [6]: highly susceptible; Trypsin: complete degradation within [6]: within 1 h
7 | CC1(C)CNC(=O)C[C@H](C(=O)N[C@@H](CCCNC(=N)N)C(=O)N[C@@H](CCCNC(=N)N)C(N)=O)NC(=O)[C@H](Cc2ccccc2)NC(=O)C(NC(=O)CNC(=O)[C@@H](N)Cc2ccc(O)cc2)CSS1 (stereo partly drawn) [DP-7-13, c(Tyr-Gly-SSa-Phe-D(Asp)-Arg-Arg)] (H-YG[ξC]F[dD]RR-NH2; linker 3-5 via X1; N-terminus assumed) | – | < 0.01 min | – | < 0.01 min | – | –
8 | CC1(C)CNC(=O)C[C@@H](NC(=O)CNC(=O)[C@@H](N)Cc2ccc(O)cc2)C(=O)N[C@@H](Cc2ccccc2)C(=O)N[C@H](C(=O)N[C@@H](CCCNC(=N)N)C(=O)N[C@@H](CCCNC(=N)N)C(N)=O)CSS1 [DP-7-14, c(Tyr-Gly-D(Asp)-Phe-SSa-Arg-Arg)] (H-YG[dD]FCRR-NH2; linker 3-5 via NHCH2CMe2S) | – | < 0.01 min | – | < 0.01 min | – | –
9 | CC[C@H](C)[C@H](NC(=O)[C@H](CCCN=C(N)N)NC(=O)[C@H](CCCN=C(N)N)NC(=O)[C@H](CC(C)C)NC(=O)[C@H](Cc1ccccc1)NC(=O)CNC(=O)CNC(=O)[C@@H](N)Cc1ccc(O)cc1)C(=O)N[C@@H](CCCN=C(N)N)C(=O)N1CCC[C@H]1C(=O)N[C@@H](CCCCN)C(N)=O [DP-11-00] | – | – | – | – | – | Susceptibility to trypsin digestion [6]: highly susceptible; Trypsin: complete degradation within [6]: within 1 h
10 | CC[C@H](C)[C@H](NC(=O)C1CSSC(C)(C)CNC(=O)C[C@@H](NC(=O)[C@H](Cc2ccccc2)NC(=O)CNC(=O)CNC(=O)[C@@H](N)Cc2ccc(O)cc2)C(=O)N[C@@H](CCCNC(=N)N)C(=O)N1)C(=O)N[C@@H](CCCNC(=N)N)C(=O)N1CCC[C@H]1C(=O)N[C@@H](CCCCN)C(N)=O (stereo partly drawn) [DP-11-06, c(Tyr-Gly-Gly-Phe-D(Asp)-Arg-SSa-Ile-Arg-Pro-Lys)] (H-YGGF[dD]R[ξC]IRPK-NH2; linker 5-7 via NHCH2CMe2S; N-terminus assumed) | 0.75 nM | 30 min | – | 360 min | – | half-life [7]: 1800 s; Peptide remained in trypsin after 360 minutes ([4]; n = 1): # (more than 90% remained after 360 minutes)
